Laboratory results taken from ChEMBL document CHEMBL3596193, “Pradimicin A, a D-mannose-binding antibiotic, binds pyranosides of L-fucose and L-galactose in a calcium-sensitive manner” (Bioorg Med Chem Lett, 2015).

Assays:
[1] = Binding affinity to D-Glucose assessed as molar ratio of sugar to compound in aggregate at pH 4.5 by co-precipitation method in presence of Ca2+
[2] = Binding affinity to D-Mannose assessed as molar ratio of sugar to compound in aggregate at 2 umol at pH 6 by 1H NMR analysis in presence of 20 umol CaCl2
[3] = Binding affinity to alpha-D-Mannose-OMe assessed as molar ratio of sugar to compound in aggregate at 2 umol at pH 6 by 1H NMR analysis in presence of 20 umol CaCl2
[4] = Binding affinity to beta-D-Mannose-OMe assessed as molar ratio of sugar to compound in aggregate at 2 umol at pH 6 by 1H NMR analysis in presence of 20 umol CaCl2
[5] = Binding affinity to D-Arabinose assessed as molar ratio of sugar to compound in aggregate at 2 umol at pH 6 by 1H NMR analysis in presence of 20 umol CaCl2
[6] = Binding affinity to D-Glucose assessed as molar ratio of sugar to compound in aggregate at 2 umol at pH 6 by 1H NMR analysis in presence of 20 umol CaCl2
[7] = Binding affinity to alpha-D-Glucose-OMe assessed as molar ratio of sugar to compound in aggregate at 2 umol at pH 6 by 1H NMR analysis in presence of 20 umol CaCl2
[8] = Binding affinity to L-[…] assessed as molar ratio of sugar to compound in aggregate at 2 umol at pH 6 by 1H NMR analysis in presence of 20 umol CaCl2
[9] = Binding affinity to alpha-L-[…]-OMe assessed as molar ratio of sugar to compound in aggregate at 2 umol at pH 6 by 1H NMR analysis in presence of 20 umol CaCl2
[10] = Binding affinity to beta-L-[…]-OMe assessed as molar ratio of sugar to compound in aggregate at 2 umol at pH 6 by 1H NMR analysis in presence of 20 umol CaCl2
[11] = Binding affinity to L-Galactose assessed as molar ratio of sugar to compound in aggregate at 2 umol at pH 6 by 1H NMR analysis in presence of 20 umol CaCl2
[12] = Binding affinity to alpha-L-Galactose-OMe assessed as molar ratio of sugar to compound in aggregate at 2 umol at pH 6 by 1H NMR analysis in presence of 20 umol CaCl2
[13] = Binding affinity to beta-L-Galactose-OMe assessed as molar ratio of sugar to compound in aggregate at 2 umol at pH 6 by 1H NMR analysis in presence of 20 umol CaCl2
[14] = Binding affinity to D-Mannose assessed as molar ratio of sugar to compound in aggregate at 2 umol at pH 6 incubated at 60 degC for 15 mins, room temperature for 1 hr, and 4 degC for 1 hr by co-precipitation method in presence of 100 umol CaCl2
[15] = Binding affinity to alpha-D-Mannose-OMe assessed as molar ratio of sugar to compound in aggregate at 2 umol incubated at 60 degC for 15 mins, room temperature for 1 hr, and 4 degC for 1 hr by co-precipitation method in presence of 100 umol CaCl2
[16] = Binding affinity to beta-D-Mannose-OMe assessed as molar ratio of sugar to compound in aggregate at 2 umol incubated at 60 degC for 15 mins, room temperature for 1 hr, and 4 degC for 1 hr by co-precipitation method in presence of 100 umol CaCl2
[17] = Binding affinity to L-[…] assessed as molar ratio of sugar to compound in aggregate at 2 umol incubated at 60 degC for 15 mins, room temperature for 1 hr, and 4 degC for 1 hr by co-precipitation method in presence of 100 umol CaCl2
[18] = Binding affinity to alpha-L-[…]-OMe assessed as molar ratio of sugar to compound in aggregate at 2 umol incubated at 60 degC for 15 mins, room temperature for 1 hr, and 4 degC for 1 hr by co-precipitation method in presence of 100 umol CaCl2
[19] = Binding affinity to beta-L-[…]-OMe assessed as molar ratio of sugar to compound in aggregate at 2 umol incubated at 60 degC for 15 mins, room temperature for 1 hr, and 4 degC for 1 hr by co-precipitation method in presence of 100 umol CaCl2
[20] = Binding affinity to L-Galactose assessed as molar ratio of sugar to compound in aggregate at 2 umol incubated at 60 degC for 15 mins, room temperature for 1 hr, and 4 degC for 1 hr by co-precipitation method in presence of 100 umol CaCl2
[21] = Binding affinity to alpha-L-Galactose-OMe assessed as molar ratio of sugar to compound in aggregate at 2 umol incubated at 60 degC for 15 mins, room temperature for 1 hr, and 4 degC for 1 hr by co-precipitation method in presence of 100 umol CaCl2
[22] = Binding affinity to beta-L-Galactose-OMe assessed as molar ratio of sugar to compound in aggregate at 2 umol incubated at 60 degC for 15 mins, room temperature for 1 hr, and 4 degC for 1 hr by co-precipitation method in presence of 100 umol CaCl2
[23] = Binding affinity to Alpha-D-Mannose-OMe assessed as molar ratio of sugar to compound in aggregate at pH 4.5 by co-precipitation method in presence of Ca2+

CN[C@@H]1[C@H](O[C@@H]2OC[C@@H](O)[C@H](O)[C@H]2O)[C@@H](O)[C@H](O[C@H]2c3cc(C)c(C(=O)N[C@H](C)C(=O)O)c(O)c3-c3c(cc4c(c3O)C(=O)c3cc(OC)cc(O)c3C4=O)[C@@H]2O)O[C@@H]1C
Activity [1]: 0.57 molar ratio | Activity [2]: 1.07 molar ratio | Activity [3]: 1.13 molar ratio | Activity [4]: 1.15 molar ratio | Activity [5]: 1.14 molar ratio | Activity [6]: < 0.1 molar ratio | Activity [7]: < 0.1 molar ratio | Activity [8]: < 0.1 molar ratio | Activity [9]: 0.28 molar ratio | Activity [10]: 0.52 molar ratio | Activity [11]: < 0.1 molar ratio | Activity [12]: 0.32 molar ratio | Activity [13]: 0.6 molar ratio | Activity [14]: 1.08 molar ratio | Activity [15]: 1.11 molar ratio | Activity [16]: 1.08 molar ratio | Activity [17]: < 0.1 molar ratio | Activity [18]: < 0.1 molar ratio | Activity [19]: < 0.1 molar ratio | Activity [20]: < 0.1 molar ratio | Activity [21]: < 0.1 molar ratio | Activity [22]: < 0.1 molar ratio | Activity [23]: 1.08 molar ratio
